This test deals with HUVEC. The test is described as follows: Growth inhibition studies using HUVEC. Type of test: cell-based, human. The method in brief:
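MTT cytotoxicity/growth-inhibition assay in human cell lines including A2780, A2780/ADR, H460 and HUVEC.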

These results are taken from patent US7220784B2, “Substituted stilbenes and their reactions” (priority 2000, dated 2007).

What is called IC50 is the concentration needed to halve the response being measured. A lower IC50 goes with greater potency in that assay. Regarding `COc1ccc(C=Cc2cc(OC)c(OC)c(OC)c2)cc1F` [Compound 97-64H], the “concentration necessary to inhibit the growth of HUVEC cells in vitro” value came to 0.001 mM. The IC50 (Homo sapiens, HUVEC) turned out to be 2.4 nM.
